Experimental data published in patent US4520101A (priority 1983, dated 1985).
Values joined by “and” are separate entries in the source; they are usually repeats but may differ in a detail not shown here. Equal entries are not always repeated.

Test system: Cephalosporium acremonium (a high ceph C-producing mutant strain which also produces desacetyl ceph C)
Assay type: cell-based

SMILES: CCOP(=O)(OCC)C(C)=O [diethyl acetyl phosphonate]
- Ceph C: 9285 µg/g and 9665 µg/g
- Des C/Total Ceph Nucleus (Ceph C + Des Ceph C): 4.52% and 4.40%
- Des Ceph C: 440 µg/g and 445 µg/g
